# In patent publication US8748417B2, “Amino-pyrrolidine-azetidine diamides as monoacylglycerol lipase inhibitors” (Janssen Pharmaceutica, NV, priority 2010, dated 2014):
# Positions count from the first letter of the chain named.
# Biological target: T1, purified mutant MGL (mut-MGLL 11-313 L179S L186S) (Homo sapiens, UniProt Q99685, L169S/L176S)
# T1 construct: purified mutant MGL (mut-MGLL 11-313 L179S L186S)
# T1 sequence (Q99685 1-303 L169S/L176S): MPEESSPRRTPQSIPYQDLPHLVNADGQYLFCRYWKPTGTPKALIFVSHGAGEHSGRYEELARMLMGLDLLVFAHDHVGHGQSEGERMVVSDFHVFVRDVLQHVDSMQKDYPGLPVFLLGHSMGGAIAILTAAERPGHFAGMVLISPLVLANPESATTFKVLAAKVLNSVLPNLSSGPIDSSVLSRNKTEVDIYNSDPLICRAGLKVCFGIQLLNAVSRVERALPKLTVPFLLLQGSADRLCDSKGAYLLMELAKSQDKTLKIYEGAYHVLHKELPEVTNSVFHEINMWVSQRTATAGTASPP
# Assay: MGL enzyme activity assay (4MU-B cleavage), mutant MGL
# Assay type: biochemical
# Conditions: mutant MGL 5 nM, 4MU-B 10 μM, 37° C.; read-out: MGL mutant inh IC50
# Protocol: All rate-based assays were performed in black 384-well polypropylene PCR microplates (Abgene) in a total volume of 30 μL. Substrate 4-methylumbelliferyl butyrate (4MU-B; Sigma) and either purified mutant MGL (mut-MGLL 11-313 L179S L186S) or purified wild type MGL (wt-MGLL 6H-11-313) were diluted separately into 20 mM PIPES buffer (pH=7.0), containing 150 mM NaCl and 0.001% Tween 20. Compounds of Formula (I) were pre-dispensed (50 nL) into the assay plate using a Cartesian Hummingbird prior to adding 4MU-B (25 μL of 1.2× solution to a final concentration of 10 μM) followed by enzyme (5 μL of a 6× solution to a final concentration of 5 nM) to initiate the reaction. Final compound concentrations ranged from 17 to 0.0003 μM. The fluorescence change due to 4MU-B cleavage was monitored with excitation and emission wavelengths of 335 and 440 nm, respectively, and a bandwidth of 10 nm (Safire^2, Tecan) at 37° C. for 5 min.
# The IC50 values for the following compounds were determined using Microsoft Office Excel from a fit of the equation to the concentration-response plot of the fractional activity as a function of inhibitor concentration.
row,Structure (SMILES),IC50 [nM]
1,"O=C(c1ccc(-c2ccccc2)cc1)N1CC(N[C@@H]2CN(C(=O)c3ccccc3)C[C@H]2O)C1 (relative stereo) [Cpd 78, trans-4-{[1-(Biphenyl-4-ylcarbonyl)azetidin-3-yl]amino}-1-(phenylcarbonyl)pyrrolidin-3-ol]",13400
2,"O=C(c1ccc(Cc2ccccc2)cc1)N1CC(N[C@@H]2CCN(C(=O)c3ccccc3)C2)C1 [Cpd 7, (3R)-N-{1-[(4-Benzylphenyl)carbonyl]azetidin-3-yl}-1-(phenylcarbonyl)pyrrolidin-3-amine]",2060
3,"O=C(c1nccs1)N1CC[C@H](NC2CN(C(=O)N3CCc4cc(Br)ccc4C3)C2)C1 [Cpd 10, (S)-(3-((1-(6-Bromo-1,2,3,4-tetrahydroisoquinoline-2-carbonyl)azetidin-3-yl)amino)pyrrolidin-1-yl)(thiazol-2-yl)methanone]",2910
4,"O=C(c1nccs1)N1CC[C@H](NC2CN(C(=O)N3Cc4ccc(Br)cc4C3)C2)C1 [Cpd 12, (3S)-N-{1-[(5-Bromo-1,3-dihydro-2H-isoindol-2-yl)carbonyl]azetidin-3-yl}-1-(1,3-thiazol-2-ylcarbonyl)pyrrolidin-3-amine]",6210
5,"O=C(c1ccc(-c2ccccc2)cc1)N1CC(N[C@H]2CCN(C(=O)c3ccc(F)cc3)C2)C1 [Cpd 45, (3S)-N-[1-(Biphenyl-4-ylcarbonyl)azetidin-3-yl]-1-[(4-fluorophenyl)carbonyl]pyrrolidin-3-amine]",1630
6,"O=C(c1ccc(-c2ccccc2)cc1)N1CC(N[C@H]2CCN(C(=O)c3cc4ccccc4o3)C2)C1 [Cpd 47, (3S)-1-(1-Benzofuran-2-ylcarbonyl)-N-[1-(biphenyl-4-ylcarbonyl)azetidin-3-yl]pyrrolidin-3-amine]",10900
7,"O=C(c1ccc(-c2ccccc2)cc1)N1CC(N[C@H]2CCN(C(=O)c3cc4ccccc4s3)C2)C1 [Cpd 48, (3S)-1-(1-Benzothiophen-2-ylcarbonyl)-N-[1-(biphenyl-4-ylcarbonyl)azetidin-3-yl]pyrrolidin-3-amine]",8970
8,"O=C(c1ccc(-c2ccccc2)cc1)N1CC(N[C@@H]2CN(C(=O)c3ccccc3)CC2F)C1 (stereo partly drawn) [Cpd 60, (3R)-N-[1-(Biphenyl-4-ylcarbonyl)azetidin-3-yl]-4-fluoro-1-(phenylcarbonyl)pyrrolidin-3-amine]",> 16700

# Second part, the compound after the results:
row,IC50 [nM],Structure (SMILES)
1,757,"O=C(c1ccc(-c2cccc(C(F)(F)F)c2)cc1)N1CC(N[C@@H]2CN(C(=O)c3ccccc3)C[C@H]2O)C1 (relative stereo) [Cpd 72, trans-1-(Phenylcarbonyl)-4-[(1-{[3′-(trifluoromethyl)biphenyl-4-yl]carbonyl}azetidin-3-yl)amino]pyrrolidin-3-ol]"
2,720,"O=C(c1nccs1)N1CC[C@H](NC2CN(C(=O)N3Cc4ccc(-c5ccccc5)cc4C3)C2)C1 [Cpd 13, (3S)-N-{1-[(5-Phenyl-1,3-dihydro-2H-isoindol-2-yl)carbonyl]azetidin-3-yl}-1-(1,3-thiazol-2-ylcarbonyl)pyrrolidin-3-amine]"
3,490,"O=C(c1ccc(Cc2ccccc2)cc1)N1CC(N[C@@H]2CCN(C(=O)c3nccs3)C2)C1 [Cpd 6, (3R)-N-{1-[(4-Benzylphenyl)carbonyl]azetidin-3-yl}-1-(1,3-thiazol-2-ylcarbonyl)pyrrolidin-3-amine]"
4,361,"O=C(c1ccccc1)N1CC[C@H](NC2CN(C(=O)c3cc4cc(C(F)(F)F)ccc4s3)C2)C1 [Cpd 19, (3S)-1-(Phenylcarbonyl)-N-(1-{[5-(trifluoromethyl)-1-benzothiophen-2-yl]carbonyl}azetidin-3-yl)pyrrolidin-3-amine]"
5,344,"O=C(c1nccs1)N1CC[C@H](NC2CN(C(=O)N3CCc4cc(-c5ccccc5)ccc4C3)C2)C1 [Cpd 11, (S)-(3-((1-(6-Phenyl-1,2,3,4-tetrahydroisoquinoline-2-carbonyl)azetidin-3-yl)amino)pyrrolidin-1-yl)(thiazol-2-yl)methanone]"
6,336,"O=C(c1ccc(-c2ccccc2)cc1)N1CC(N[C@H]2CCN(C(=O)c3cccc(F)c3)C2)C1 [Cpd 46, (3S)-N-[1-(Biphenyl-4-ylcarbonyl)azetidin-3-yl]-1-[(3-fluorophenyl)carbonyl]pyrrolidin-3-amine]"
7,301,"O=C(c1ccccc1)N1CC[C@H](NC2CN(C(=O)c3cc4ccc(Br)cc4s3)C2)C1 [Cpd 38, (3S)-N-{1-[(6-Bromo-1-benzothiophen-2-yl)carbonyl]azetidin-3-yl}-1-(phenylcarbonyl)pyrrolidin-3-amine]"
8,267,"O=C(c1ccccc1)N1CC[C@H](NC2CN(C(=O)c3cc4ccc(-c5ccc(C(F)(F)F)cc5)cc4s3)C2)C1 [Cpd 43, (3S)-1-(Phenylcarbonyl)-N-[1-({6-[4-(trifluoromethyl)phenyl]-1-benzothiophen-2-yl}carbonyl)azetidin-3-yl]pyrrolidin-3-amine]"
9,189,"O=C(c1ccc(-c2ccc(OC(F)(F)F)cc2)cc1)N1CC(N[C@H]2CCN(C(=O)c3ccccc3)C2)C1 [Cpd 36, (3S)-1-(Phenylcarbonyl)-N-(1-{[4′-(trifluoromethoxy)biphenyl-4-yl]carbonyl}azetidin-3-yl)pyrrolidin-3-amine]"
10,158,"O=C(c1ccc(-c2ccc(C(F)(F)F)cc2)cc1)N1CC(N[C@H]2CCN(C(=O)c3ccccc3)C2)C1 [Cpd 35, (3S)-1-(Phenylcarbonyl)-N-(1-{[4′-(trifluoromethyl)biphenyl-4-yl]carbonyl}azetidin-3-yl)pyrrolidin-3-amine]"
11,125,"O=C(c1ccc2c(-c3ccc(OC(F)(F)F)cc3)cccc2c1)N1CC(N[C@H]2CCN(C(=O)c3ccccc3)C2)C1 [Cpd 26, (3S)-1-(Phenylcarbonyl)-N-[1-({5-[4-(trifluoromethoxy)phenyl]naphthalen-2-yl}carbonyl)azetidin-3-yl]pyrrolidin-3-amine]"
12,122,"O=C(c1ccc(-c2ccccc2)cc1)N1CC(N[C@H]2CCN(C(=O)c3ccccc3)C2)C1 [Cpd 2, (3S)-N-[1-(Biphenyl-4-ylcarbonyl)azetidin-3-yl]-1-(phenylcarbonyl)pyrrolidin-3-amine]"
13,116,"O=C(c1ccc(-c2ccccc2)cc1)N1CC(N[C@H]2CCN(C(=O)c3nccs3)C2)C1 [Cpd 1, (3S)-N-[1-(Biphenyl-4-ylcarbonyl)azetidin-3-yl]-1-(1,3-thiazol-2-ylcarbonyl)pyrrolidin-3-amine]"

# Biological target: T2, purified wild type MGL (wt-MGLL 6H-11-313) (Homo sapiens, UniProt Q99685)
# T2 construct: purified wild type MGL (wt-MGLL 6H-11-313)
# T2 sequence (Q99685 1-303): T1 sequence (Q99685 1-303 L169S/L176S) with S169L, S176L
# Assay: MGL enzyme activity assay (4MU-B cleavage), wild type MGL
# Assay type: biochemical
# Conditions: wild type MGL 5 nM, 4MU-B 10 μM, 37° C.; read-out: MGL wild type inh IC50
# Summary of the method: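 Enzyme in 20 mM PIPES pH 7.0, 150 mM NaCl, 0.001% Tween 20 with 4MU-B at 10 μM final and MGL at 5 nM final; compounds 17 to 0.0003 μM final, enzyme added last. Fluorescence (ex 335/em 440 nm) followed at 37° C for 5 min; IC50 from fit of fractional activity versus inhibitor concentration.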
row,IC50 [nM],Structure (SMILES)
1,< 5,"O=C(c1nccs1)N1CC[C@H](NC2CN(C(=O)c3ccc4c(ccn4-c4ccc(F)cc4)c3F)C2)C1 [Cpd 198, (3S)-N-(1-{[4-Fluoro-1-(4-fluorophenyl)-1H-indol-5-yl]carbonyl}azetidin-3-yl)-1-(1,3-thiazol-2-ylcarbonyl)pyrrolidin-3-amine]"
2,13.4,"O=C(c1nccs1)N1CC[C@H](NC2CN(C(=O)c3sc4cc(-c5ccccc5)ccc4c3C(F)(F)F)C2)C1 [Cpd 208, (3S)-N-(1-{[6-Phenyl-3-(trifluoromethyl)-1-benzothiophen-2-yl]carbonyl}azetidin-3-yl)-1-(1,3-thiazol-2-ylcarbonyl)pyrrolidin-3-amine]"
3,< 5,"O=C(c1nccs1)N1CC[C@H](NC2CN(C(=O)c3cc4ccn(-c5ccc(F)cc5)c4cc3F)C2)C1 [Cpd 212, (3S)-N-(1-{[6-Fluoro-1-(4-fluorophenyl)-1H-indol-5-yl]carbonyl}azetidin-3-yl)-1-(1,3-thiazol-2-ylcarbonyl)pyrrolidin-3-amine]"

# Test system: MGL (rat brain homogenate)
# Assay: 2-AG accumulation assay in rat brain homogenate
# Assay type: biochemical
# Conditions: compound 1 μM, percent of vehicle 2-AG accumulation
# Summary of the method: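 Rat brain homogenate was incubated with compound for 15 min at 37° C., after which CaCl2 was added to a final concentration of 10 mM and incubation continued for 15 min at 37° C. in 5 mL total. Reactions were stopped with 6 mL of 2:1 chloroform/methanol, and 2-AG accumulated in the organic phase was quantified by HPLC/MS.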
row,Structure (SMILES),Rat Brain 2AG % VehCntrl (%) @1 μM [%]
1,"O=C(c1nccs1)N1CC[C@H](NC2CN(C(=O)c3ccc4c(ccn4-c4ccc(F)cc4)c3F)C2)C1 [Cpd 198, (3S)-N-(1-{[4-Fluoro-1-(4-fluorophenyl)-1H-indol-5-yl]carbonyl}azetidin-3-yl)-1-(1,3-thiazol-2-ylcarbonyl)pyrrolidin-3-amine]",937
2,"O=C(c1nccs1)N1CC[C@H](NC2CN(C(=O)c3sc4cc(-c5ccccc5)ccc4c3C(F)(F)F)C2)C1 [Cpd 208, (3S)-N-(1-{[6-Phenyl-3-(trifluoromethyl)-1-benzothiophen-2-yl]carbonyl}azetidin-3-yl)-1-(1,3-thiazol-2-ylcarbonyl)pyrrolidin-3-amine]",359
3,"O=C(c1nccs1)N1CC[C@H](NC2CN(C(=O)c3cc4ccn(-c5ccc(F)cc5)c4cc3F)C2)C1 [Cpd 212, (3S)-N-(1-{[6-Fluoro-1-(4-fluorophenyl)-1H-indol-5-yl]carbonyl}azetidin-3-yl)-1-(1,3-thiazol-2-ylcarbonyl)pyrrolidin-3-amine]",582
